# Values of other authors, collected in US20210315865A1 (Biohaven Therapeutics Ltd., priority 2018, published 2021).
# Conditions: taken with meals
smiles,measurement,value
"Nc1nc2ccc(OC(F)(F)F)cc2s1 [riluzole, 6-(trifluoromethoxy)benzothiazol-2-amine]",food effect on exposure,reduced exposure when taken with meals
